Test results taken from patent publication US20080319078A1, “Triphenylethylene Compounds Useful as Selective Estrogen Receptor Modulators” (priority 2005, published 2008).

melting point: 253 to 254 °C
SMILES: CCC(=C(c1ccc(O)cc1)c1ccc(O)cc1)c1ccc(OCC(=O)O)c(OC)c1 [Example 4, {[4-[1-Ethyl-2,2-bis(4-hydroxyphenyl)ethenyl]-2-(methyloxy)phenyl]oxy}acetic acid]
